What all share (format): cell-based
In assay [1] the test system is Enterococcus faecium VRQR (vancomycin resistant, quinolone resistant). Nature of the assay: MIC, agar dilution method, Mueller-Hinton agar with 5% defibrinated horse blood. To be noted: 35° C., 5 % CO2, 24 hours. Here is the method: (§1) The following in vitro results were obtained based on an agar dilution method except for C. pneumoniae. The activity is presented as the minimum inhibitory concentration (MIC).
(§2) Streptococci and enterococci were tested on Mueller-Hinton agar supplemented with 5% defibrinated horse blood, using an approximate inoculum of 1×10^4 cfu/spot an incubation temperature of 35° C. in an atmosphere of 5 % CO2 for 24 hours. The MIC was defined as the lowest concentration at which no visible bacterial growth was observed.

The test system of assay [2] is Streptococcus pneumoniae IID553. The description is as above. To be noted: 35° C., 5 % CO2, 24 hours. Here is the method: as §1, §2
The test system of assay [3] is Streptococcus pneumoniae PRQR (penicillin resistant, quinolone resistant). Described as above. To be noted: 35° C., 5 % CO2, 24 hours. Here is the method: as §1, §2
For assay [4], the system named is Streptococcus pyogenes IID692. Described as above. To be noted: 35° C., 5 % CO2, 24 hours. Here is the method:
as §1, §2

The test system of assay [5] is Morcaxella catarrhalis ATCC25238. Briefly: MIC, agar dilution method, Mueller-Hinton agar. To be noted: 35° C., 24 hours. Here is the method:
as §1
(§3) S. aureus and M. catarrhalis were tested on Mueller-Hinton agar, using an approximate inoculum of 1×10^4 cfu/spot an incubation temperature of 35° C. for 24 hours. The MIC was defined as the lowest concentration at which no visible bacterial growth was observed.

Assay [6] relates to Staphylococcus aureus CR (chloramphenicol resistant). Nature of the assay: MIC, agar dilution method, Mueller-Hinton agar. To be noted: 35° C., 24 hours. As for the experimental part: as §1, §3
The test system of assay [7] is Staphylococcus aureus MR (methicillin resistant). Nature of the assay: MIC, agar dilution method, Mueller-Hinton agar. To be noted: 35° C., 24 hours. Here is the method:
as §1, §3

In assay [8] the test system is Staphylococcus aureus Smith. Nature of the assay: MIC, agar dilution method, Mueller-Hinton agar. To be noted: 35° C., 24 hours. As for the experimental part:
as §1, §3

SMILES strings stand for the structures. In brackets after ≈: the same amount, converted by molar mass.

For `CC(=O)NC[C@H]1CN(c2ccc(-c3ccc([C@@]4(C#N)[C@@H]5CNC[C@@H]54)nc3)cc2)C(=O)O1.Cl` [Example 13, N-[5(S)-3-[4-[2-[(1α,5α,6β)-6-Cyano-3-azabicyclo[3.1.0]hexan-6-yl]pyridin-5-yl]phenyl]-2-oxooxazolidin-5-ylmethyl]acetamide Hydrochloride], the MIC was determined as 0.125 µg/mL in assay [1]; 0.125 µg/mL in assay [2]; 0.06 µg/mL in assay [3]; 0.06 µg/mL in assay [4]; 1 µg/mL in assay [5]; 0.5 µg/mL in assay [6]. Also, the MIC in assay [7] and in assay [8] was 0.125 µg/mL throughout.
Consider `CC(=O)NC[C@H]1CN(c2ccc(-c3ccc([C@@]4(C#N)[C@@H]5CNC[C@@H]54)c(F)c3)c(F)c2)C(=O)O1.Cl` [Example 15, N-[5(S)-3-[4-[4-[(1α,5α,6β)-6-Cyano-3-azabicyclo[3.1.0]hexan-6-yl]-3-fluorophenyl]-3-fluorophenyl]-2-oxooxazolidin-5-ylmethyl]acetamide Hydrochloride], for which the MIC amounted to 0.5 µg/mL in assay [1]; 0.25 µg/mL in assay [2]; 0.25 µg/mL in assay [3]; 0.25 µg/mL in assay [4]; 4 µg/mL in assay [5]; 1 µg/mL in assay [6]. Moreover, the MIC in assay [7] and in assay [8] was 0.25 µg/mL each time.
Take `N#C[C@]1(c2ccc(-c3ccc(N4C[C@H](Cn5ccnn5)OC4=O)cc3F)cn2)[C@@H]2COC[C@@H]21` [Example 23, 1-[5(R)-3-[4-[2-[(1α,5α,6β)-6-Cyano-3-oxabicyclo[3.1.0]hexan-6-yl]pyridin-5-yl]-3-fluorophenyl]-2-oxooxazolidin-5-ylmethyl]-1,2,3-triazole]: the MIC was found to be 0.06 µg/mL (≈ 0.134 µM) in assay [1]; 0.06 µg/mL (≈ 0.134 µM) in assay [2]; 0.06 µg/mL (≈ 0.134 µM) in assay [3]; 0.06 µg/mL (≈ 0.134 µM) in assay [4]; 0.5 µg/mL (≈ 1.12 µM) in assay [5]; 0.5 µg/mL (≈ 1.12 µM) in assay [6]. Moreover, the MIC in assay [7] and in assay [8] was 0.06 µg/mL (≈ 0.134 µM) throughout.
`CC(=O)NC[C@H]1CN(c2ccc(N3CCOCC3)c(F)c2)C(=O)O1` [Linezolid, reference compound] registered an MIC in assay [5] of 4 µg/mL (≈ 11.9 µM).

The values are drawn from patent publication US7582659B2, “Cyclopropyl group substituted oxazolidinone antibiotics and derivatives thereof” (Merck & Co., Inc., priority 2003, dated 2009).
